Test results as given in patent publication US20260200926A1, “TREM2 MODULATORS” (Muna Therapeutics ApS, priority 2022, published 2026).
Where two headings read alike, the source gives them in different places.

Molecular target: T1, Human TREM2 (Homo sapiens, UniProt Q9NZC2)
T1 construct: expressed in transfected cells
Experiment: Human TREM2 activity: cellular phosphorylation of Syk (AlphaLISA SureFire Ultra p-SYK) in HEK293/DAP12+TREM2 stable cell line
Format: cell-based
Settings: for Emax: maximal response relative to reference agonist example 1B (remaining examples); for EC50: phospho-Syk AlphaLISA signal, HEK293/DAP12+TREM2 cells, concentration giving 50% of maximal response, read-out: EC50
Description: Human TREM2, in vitro Measurement of Triggering Receptor Expressed on Myeloid Cells 2 activity using cellular phosphorylation of Spleen Tyrosine Kinase (“Syk”) Assay
HEK-293 cells were co-transfected with separate plasmids encoding TREM2 and DAP12 to generate a stable cell line. After antibiotic selection, functional clone pool analysis and two successive limiting dilutions, the final clone “HEK293/DAP12+TREM2” underwent a qPCR analysis and a pharmacological validation.
TREM2 signaling through DAP12 was monitored in the HEK293/DAP12+TREM2 stable cell line by measuring the phosphorylation levels of the Syk kinase using the commercially available AlphaLISA SureFire Ultra p-SYK (Tyr525/526) Assay Kit (PerkinElmer #ALSU-PSYK), based on the Perkin Elmer AlphaScreen/AlphaLISA technology.
Compounds are transferred to the test plate and tested in full dose response, 8 concentrations in quadruplicate data points. Compound serial dilutions were performed at Cybi-Felix instrument in 100% DMSO and the dose response curves were assembled in automated fashion in 384MPT at Hamilton STARlet instrument. All the stock solutions were prepared at 20 mM in 100% DMSO. For compounds testing, the starting concentration was 100 μM, dilution steps 1:6. […] Finally, a 384MPT reformatted for all compounds at 8 concentrations, quadruplicates, was used as “mother to child” process with a CyBi®-Well dispenser in which 1 μL of each compound was moved into a destination plate pre-filled with 65.6 μL of EMEM cell culture medium (BIOWHITTAKER_cat.BE12-125F), thus obtaining 3× concentrated compounds working solution. In columns 1-2 and 23-24 the control wells were added. In particular, dose response curves of a reference control agonist were included in column 1 and 24 as reference control agonist (Reference control agonists used include Human TREM2 polyclonal Antibody AF1828: R&D Systems; Human TREM2 monoclonal Antibody MAB1828: R&D Systems). The dose response curves were tested starting at 30 μM, dilution step 1:6. Both “source” compound plate and “destination” compound plate were barcoded and a relationship between the two plates was thus generated.
HEK293/DAP12+TREM2 cells were cultured in EMEM medium supplemented with IX Penicillin/Streptomycin (BIOWHITTAKER_cat.DE17-602E), ULTRAGLUTAMINE I 200 mM, 10% Fetal Bovine Serum plus antibiotics referred to as “HEK293 Culture Medium”. The day before the experiment, cells were detached by gentle wash with DPBS, followed by 5 min incubation at 37° C. with Trypsin solution. Cells were then diluted in HEK293 Culture Medium without antibiotics, counted and seeded into 384-well poly-D-Lysine coated microplates black/clear bottom (GREINER 781946) at a density of 10,000 cells/well in 25 μL/well by the use of a MATRIX WellMate dispenser. Plates were placed into a humidified cell culture incubator at 37° C. with 5% CO2 until the experimental day. 20-24 hours after seeding mature medium was removed and replaced with 10 μL/well of EMEM cell medium supplemented with 0.1% Pluronic F-68 non-ionic surfactant (Thermofisher, 24040032), referred to as “Assay Buffer”, using the CyBi®-Well instrument. Then 5 μL/well of Assay Buffer containing 3× concentrated test compounds or the reference control agonist (in 0.5% final DMSO concentration) were added to the cells with the CyBi®-Well instrument. Cell plates were incubated for 30 min into a humidified cell culture incubator at 37° C. with 5% CO2·, then the medium was removed by manually discard. 20 μL/well of lysis buffer were dispensed using the CyBi®-Well instrument and plates were incubated for 10 min at room temperature on a plate shaker (350 rpm). Then, 10 μL/well of lysate were transferred to the Alpha plates. The CyBi®-Well instrument was used to dispense 5 μL/well of AlphaLISA Acceptor Bead Solution in IX Immunoassay buffer (Perkin Elmer AL000F). Then the plates were sealed with Heat sealing foil, shaked for 2 minutes (350 rpm) and incubated for 1 hour at room temperature.

T1 sequence (Q9NZC2 19-230): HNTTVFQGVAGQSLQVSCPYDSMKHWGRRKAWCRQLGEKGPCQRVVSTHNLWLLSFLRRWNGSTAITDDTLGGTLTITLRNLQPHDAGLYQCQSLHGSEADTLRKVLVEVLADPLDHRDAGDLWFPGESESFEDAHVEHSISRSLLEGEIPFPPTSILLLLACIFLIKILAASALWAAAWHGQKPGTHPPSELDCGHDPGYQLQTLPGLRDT
T1 sequence (O43914 22-113 partner): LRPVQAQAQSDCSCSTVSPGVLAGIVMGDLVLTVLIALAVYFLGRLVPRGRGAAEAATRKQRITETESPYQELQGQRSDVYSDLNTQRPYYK

| Emax (HEK293, read-out: Emax) | EC50 | Emax | SMILES |
| --- | --- | --- | --- |
| 75 to 110% | 10 to 100 nM | – | Cc1nc2c(-c3ccc(Cl)cc3F)nc(N3C[C@H](c4cnn(C)c4)OC(C)(C)C3)nc2c(=O)n1C (single isomer, unassigned) [Example 89B] |
| 75 to 110% | 10 to 100 nM | – | Cc1nc2c(-c3ccc(C(F)(F)F)cc3F)nc(N3C[C@@H](c4cnn(C)c4)OC(C)(C)C3)nc2c(=O)n1C (single isomer, unassigned) [Example 100A] |
| < 75% | 100 to 1000 nM | – | Cc1nc2c(-c3ccc(C(F)(F)F)cc3F)nc(N3C[C@H](c4cnn(C)c4)OC(C)(C)C3)nc2c(=O)n1C (single isomer, unassigned) [Example 100B] |
| 75 to 110% | 10 to 100 nM | – | Cc1nc2c(-c3cc(F)c(F)cc3F)nc(N3C[C@@H](c4cnn(C)c4)OC(C)(C)C3)nc2c(=O)n1C (single isomer, unassigned) [Example 101A] |
| < 75% | > 1000 nM | – | Cc1nc2c(-c3cc(F)c(F)cc3F)nc(N3C[C@H](c4cnn(C)c4)OC(C)(C)C3)nc2c(=O)n1C (single isomer, unassigned) [Example 101B] |
| 75 to 110% | 10 to 100 nM | – | Cc1nc2c(-c3ccc(C(F)(F)F)nc3)nc(N3C[C@@H](c4cnn(C)c4)OC(C)(C)C3)nc2c(=O)n1C (single isomer, unassigned) [Example 102A] |
| < 75% | > 1000 nM | – | Cc1nc2c(-c3ccc(C(F)(F)F)nc3)nc(N3C[C@H](c4cnn(C)c4)OC(C)(C)C3)nc2c(=O)n1C (single isomer, unassigned) [Example 102B] |
| 75 to 110% | 1 to 10 nM | – | Cc1nc2c(-c3ccc(Cl)cc3F)nc(N3C[C@@H](c4cnn(C)c4)OC4(CC4)C3)nc2c(=O)n1C (single isomer, unassigned) [Example 108A] |
| < 75% | 100 to 1000 nM | – | Cc1nc2c(-c3ccc(Cl)cc3F)nc(N3C[C@H](c4cnn(C)c4)OC4(CC4)C3)nc2c(=O)n1C (single isomer, unassigned) [Example 108B] |
| 75 to 110% | 1 to 10 nM | – | Cc1nc2c(-c3ccc(Cl)cc3F)nc(N3C[C@@H](c4cnn(C)c4)OC4(CCC4)C3)nc2c(=O)n1C (single isomer, unassigned) [Example 109A] |
| < 75% | 100 to 1000 nM | – | Cc1nc2c(-c3ccc(Cl)cc3F)nc(N3C[C@H](c4cnn(C)c4)OC4(CCC4)C3)nc2c(=O)n1C (single isomer, unassigned) [Example 109B] |
| 75 to 110% | 1 to 10 nM | – | Cc1nc2c(-c3ccc(Cl)cc3F)nc(N3C[C@@H](c4cnn(C5CC5)c4)OC(C)(C)C3)nc2c(=O)n1C (single isomer, unassigned) [Example 110A] |
| < 75% | 10 to 100 nM | – | Cc1nc2c(-c3ccc(Cl)cc3F)nc(N3C[C@H](c4cnn(C5CC5)c4)OC(C)(C)C3)nc2c(=O)n1C (single isomer, unassigned) [Example 110B] |
| < 75% | 100 to 1000 nM | – | Cc1nc2c(-c3ccc(Cl)cc3F)nc([C@@H]3C[C@H](c4cnn(C)c4)OC(C)(C)C3)nc2c(=O)n1C (single isomer, unassigned) [Example 111B] |
| 75 to 110% | 10 to 100 nM | – | Cc1nc2c(-c3ccc(Cl)cc3F)nc(N3C[C@@H](c4cnn(C)c4)OC(C)(C)C3)cc2c(=O)n1C (single isomer, unassigned) [Example 112A] |
| < 75% | 100 to 1000 nM | – | Cc1nc2c(-c3ccc(Cl)cc3F)nc(N3C[C@H](c4cnn(C)c4)OC(C)(C)C3)cc2c(=O)n1C (single isomer, unassigned) [Example 112B] |

The next lines start with the compound.

| SMILES | Emax (HEK293, read-out: Emax) | EC50 | Emax |
| --- | --- | --- | --- |
| Cc1nc2c(C3CCC(C)CC3)nc(N3CCOC(c4cnn(C)c4)C3)nc2c(=O)n1C (single isomer, unassigned) [Example 71A] | 75 to 110% | 10 to 100 nM | – |
| Cc1nc2c(nc(N3CCO[C@@H](c4cnn(C)c4)C3)nc2[C@H]2CC[C@H](C)CC2)c(=O)n1C (single isomer, unassigned) [Example 71B] | – | 10 to 100 nM | + (<75%) |
| Cc1nc2c(-c3ccc(C(F)(F)F)nc3)nc([C@@H]3CCO[C@H](c4cnn(C)c4)C3)nc2c(=O)n1C (single isomer, unassigned) [Example 88A] | < 75% | > 1000 nM | – |
| Cc1nc2c(-c3ccc(C(F)(F)F)nc3)nc([C@H]3CCO[C@@H](c4cnn(C)c4)C3)nc2c(=O)n1C (single isomer, unassigned) [Example 88B] | < 75% | > 1000 nM | – |
| Cc1nc2c(-c3ccc(C(F)(F)F)nc3)nc(N3CCC(F)(F)[C@H](c4cnn(C)c4)C3)nc2c(=O)n1C (single isomer, unassigned) [Example 92] | < 75% | 10 to 100 nM | – |
| Cc1nc2c(-c3ccc(C(F)(F)F)nc3)nc(N3CCC(F)(F)[C@@H](c4cnn(C)c4)C3)nc2c(=O)n1C (single isomer, unassigned) [Example 93] | 75 to 110% | 10 to 100 nM | – |
| Cc1cc([C@H]2C[C@@H](c3nc(-c4ccc(Cl)cc4F)c4nc(C)n(C)c(=O)c4n3)CCO2)ccn1 (single isomer, unassigned) [Example 94] | 75 to 110% | 1 to 10 nM | – |
| Cc1cc([C@H]2C[C@H](c3nc(-c4ccc(Cl)cc4F)c4nc(C)n(C)c(=O)c4n3)CCO2)ccn1 (single isomer, unassigned) [Example 95] | < 75% | 100 to 1000 nM | – |
| Cc1nc2c(-c3cc(F)c(F)cc3F)nc([C@@H]3CCO[C@H](c4cnn(C5CC5)c4)C3)nc2c(=O)n1C (single isomer, unassigned) [Example 97A] | 75 to 110% | 10 to 100 nM | – |
| Cc1nc2c(-c3cc(F)c(F)cc3F)nc([C@H]3CCO[C@@H](c4cnn(C5CC5)c4)C3)nc2c(=O)n1C (single isomer, unassigned) [Example 97B] | < 75% | > 1000 nM | – |
| Cc1nc2c(-c3ccc(C(F)(F)F)nc3)nc([C@@H]3CCO[C@H](c4cnn(C5CC5)c4)C3)nc2c(=O)n1C (single isomer, unassigned) [Example 98A] | < 75% | 10 to 100 nM | – |
| Cc1nc2c(-c3ccc(C(F)(F)F)nc3)nc([C@H]3CCO[C@@H](c4cnn(C5CC5)c4)C3)nc2c(=O)n1C (single isomer, unassigned) [Example 98B] | < 75% | > 1000 nM | – |
| Cn1cc([C@H]2CN(c3nc(-c4ccc(Cl)cc4F)c4nc(C(F)(F)F)n(C)c(=O)c4n3)CCO2)cn1 (single isomer, unassigned) [Example 103] | 75 to 110% | 1 to 10 nM | – |
| Cc1nc2c(-c3ccc(Cl)cc3F)nc(N3CCO[C@H](c4cnn(C(F)(F)F)c4)C3)nc2c(=O)n1C (single isomer, unassigned) [Example 107A] | 75 to 110% | 10 to 100 nM | – |
| Cc1nc2c(-c3ccc(Cl)cc3F)nc(N3CCO[C@@H](c4cnn(C(F)(F)F)c4)C3)nc2c(=O)n1C (single isomer, unassigned) [Example 107B] | 75 to 110% | 100 to 1000 nM | – |
| Cc1nc2c(-c3ccc(Cl)cc3F)nc([C@H]3C[C@@H](c4cnn(C)c4)OC(C)(C)C3)nc2c(=O)n1C (single isomer, unassigned) [Example 111A] | 75 to 110% | 10 to 100 nM | – |
| Cc1nc2c(-c3ccc(Cl)cc3F)nc([C@]34CCO[C@H](c5cnn(C6CC6)c5)[C@H]3C4)nc2c(=O)n1C (single isomer, unassigned) [Example 116A] | < 75% | 100 to 1000 nM | – |
